{
  "source": "patent US8653120B2",
  "about": "“Method for treatment of chronic neuropathic pain” (Apkarian Technologies LLC, priority 2004, dated 2014)",
  "assay_type_in_all_cases": "in vivo",
  "key": {"[1]": {"system": "Rats with mechanically injured paws", "assay": "Rat model of neuropathic pain due to injury: test based on paw position", "details": "same test animals as FIGS. 2A-C; FIGS. 3A-C", "procedure": "Rats with mechanically injured paws were used as models of neuropathic pain. In the test, a weight is applied to the injured paw, and the pain response is assessed. […] Rats (groups or 8-10 rats per treatment) were treated with oral saline (control) or 3, 10 or 30 mg/kg of D-cycloserine for a period of two weeks. Pain was monitored from two days before the treatment commenced for a period of 35 days total. FIGS. 3A-C show results for the same test animals as FIGS. 2A-C, except using a test based on paw position as opposed to tolerance to applied weight. In this case, lower numbers reflect lesser pain."}, "[2]": {"system": "rat exhibiting mechanical sensitivity", "assay": "Analgesia after infusion into different parts of the rat brain", "details": "50 μg infusion, FIG. 5"}, "[3]": {"system": "Rats with mechanically injured paws", "assay": "Rat model of neuropathic pain due to injury: tolerance to weight applied to the injured paw", "procedure": "Rats with mechanically injured paws were used as models of neuropathic pain. In the test, a weight is applied to the injured paw, and the pain response is assessed. […] Rats (groups or 8-10 rats per treatment) were treated with oral saline (control) or 3, 10 or 30 mg/kg of D-cycloserine for a period of two weeks. Pain was monitored from two days before the treatment commenced for a period of 35 days total. […] The open squares represent the control. The black squares represent 30 mg/kg dosage. The two intermediate lines are 3 (lighter) and 10 mg/kg (darker). […] The black squares are the retreated animals, the white squares are the controls and the intermediate colored squares are animals treated for the first time with 30 mg/kg. […] Thus, treatment of chronic pain requires a treatment regimen that extends over a period of time, for example at least one week, sufficient to provide a benefit to the individual being treated."}, "[4]": {"system": "rats treated with cisplatin", "assay": "Rat model of cisplatin-induced neuropathy: mechanical sensitivity", "procedure": "To model drug-induced pain, rats were treated with cisplatin (2 mg/kg), a common chemotherapy drug. As shown graphically in FIG. 4, after 14 days of treatment, the rats had developed mechanical sensitivity. […] In contrast, sensitivity was maintained in rats treated with a saline control (white bars). Thus, in rat models of cisplatin-induced neuropathy, pain behavior decreases 50% in two weeks in animals treated with cycloserine compared with animals treated with placebo."}, "[5]": {"details": "30 mg/kg, longer treatment period, FIG. 2C"}},
  "data": [
    {"smiles": "N[C@@H]1CON=C1O", "note": "[D-cycloserine]", "values": [
      {"measurement": "pain measured by paw position (lower numbers reflect lesser pain)", "setting": "[1]", "result": "indicates the effectiveness of the D-cycloserine"},
      {"measurement": "analgesia after infusion into medial prefrontal cortex", "setting": "[2]; vs saline infusion", "result": "result in analgesia"},
      {"measurement": "analgesia after infusion into bilateral amygdala", "setting": "[2]", "result": "result in analgesia"},
      {"measurement": "analgesia after infusion into visual cortex", "setting": "[2]", "result": "Only medial prefrontal cortex and amygdala infusions result in analgesia"},
      {"measurement": "analgesic effectiveness on re-treatment vs first treatment", "setting": "[3]; 30 mg/kg re-treatment starting 1 day after end of the 35 day test, FIG. 2B", "result": "about twice as great"},
      {"measurement": "post-treatment duration of analgesia after longer treatment", "setting": "[3]; [5]", "result": "significant analgesic affect being observed 30 days after cessation of treatment"},
      {"measurement": "time course of analgesic effect with longer treatment", "setting": "[3]; [5]", "result": "analgesic effect increases with treatment for a period of three weeks, after which a plateau is reached"},
      {"measurement": "analgesic effect of acute administration on neuropathic behavior", "setting": "[3]; acute oral or intrathecal administration", "result": "only minimal analgesic effects"},
      {"measurement": "post-treatment analgesia", "setting": "[3]; after end of two-week oral treatment, FIG. 2A", "result": "long-lasting analgesia"},
      {"measurement": "day of return to initial neuropathy levels", "setting": "[3]; after two-week oral treatment, FIG. 2A", "result": 35, "unit": "days"},
      {"measurement": "analgesic response during treatment (tolerated weight on injured paw)", "setting": "[3]; oral 3, 10 or 30 mg/kg for two weeks, vs saline, FIG. 2A", "result": "generally dose-dependent response"},
      {"measurement": "decrease of pain behavior compared with placebo", "setting": "[4]; cisplatin-induced neuropathy, two weeks of treatment", "result": 50, "unit": "%"},
      {"measurement": "effect on cisplatin-induced mechanical sensitivity", "setting": "[4]; oral 30 mg/kg, two treatments per day, 14 days, with cisplatin 2 mg/kg, FIG. 4", "result": "partial reversal of the mechanical sensitivity"}
    ]}
  ]
}
